Assay results taken from US20180078576A1, “SULPHATED XYLANS FOR TREATMENT OR PROPHYLAXIS OF RESPIRATORY DISEASES” (Paradigm Biopharmaceuticals Limited, priority 2007, published 2018).

Key:
[1] = biological target: human GM-CSF (Homo sapiens, UniProt P04141); experiment: GM-CSF dependent TF-1.8 cell proliferation; type: cell-based; conditions: 10 μg/ml and 1 μg/ml, GM-CSF 0.025 ng/ml, FIG. 7
Description: TF-1.8 cells were derived from TF-1 cells that respond to human GM-CSF (granulocyte-macrophage colony stimulating factor). TF-1.8 cells retained their responsiveness to GM-CSF. Routinely 2.5×10^4 cells are added to microplate wells that contain either no GM-CSF (negative control) or various dilutions of GM-CSF. The cells are cultured for 48 hours at 37° C. in a humidified atmosphere, after which the luciferase activity is measured by the addition of 50 μl of luciferase substrate buffer (50 mM Tris-HCl, pH 7.8, 15 mM MgSO4, 33.3 mM DTT, 0.1 mM EDTA, 0.5 mM Na-luciferin, 0.5 mM ATP, 0.25 mM lithium Co A and 0.5% v/v Triton X-100). Immediately after the addition of the luciferase buffer the plate is assayed for luciferase activity. Light emissions are detected on a Victor 1420 Multi-label counter (Wallac, Turku, Finland). A titration of GM-CSF established that these cells are dependent upon this growth factor (FIG. 6). When the effect of PPS, or other sulfated polysaccharides is to be measured, the wells also contain various concentrations of these molecules as well as the GM-CSF.

[2] = biological target: T1, human IL-8 (Homo sapiens, UniProt P10145); experiment: IL-8 induced migration of DMSO treated HL-60 cells (chemotaxis); type: cell-based; conditions: 50 μg/ml, IL-8 20 ng/ml
T1 sequence (P10145 21-99): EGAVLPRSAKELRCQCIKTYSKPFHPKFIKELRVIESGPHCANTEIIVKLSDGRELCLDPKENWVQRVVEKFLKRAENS
Description: Chemokines known to play an important role in mediating the inflammation associated with COPD include IL-8, MCP-1 and MIP-1α (Barnes 2004, supra). […] These experiments were performed using DMSO treated human promyelocytic HL-60 cells. These cells were derived from a patient with acute promyelocytic leukemia. The cells were treated with DMSO (1.2%) for 4 days before being used in the experiments. The chemotaxis assays were performed in 96-well Costar chemotaxis plates consisting of a bottom chamber to which was added the human IL-8 (+/−inhibitor) and then cells in RPMI and 1% v/v FCS were added to a top chamber and the plate was incubated at 37° C. for 1 hour to allow cells to move from the top chamber into the bottom. The number of cells migrating into the bottom chamber was quantified by labeling with AQUEOUS ONE (20 μl/well) for 1.75 hours before absorbance at 490 nm is read. IL-8 was used at a final concentration of 20 ng/ml and the inhibitors were the sulfated xylan pentasaccharide (10 and 50 μg/ml) and pentosan polysulfate (10 and 50 μg/ml). Cell migration is compared with that seen with no IL-8 or with IL-8 and no inhibitor.

[3] = biological target: T2, recombinant human eotaxin (CCL11) (Homo sapiens, UniProt P51671); experiment: BIAcore inhibition of eotaxin-1 binding to immobilized heparin; conditions: BIAcore chip, FIG. 3D
T2 construct: host or cells: E. coli
Description: (§1) The optical phenomenon of surface plasmon resonance is used to monitor physical interactions between molecules. Passing a solution of a potential protein ligand (e.g. IL-4, IL-5 or eotaxin) over a sensor surface to which a target (e.g. heparin) is coupled monitors the real-time binding of protein ligands to the immobilized target. Detection is achieved by measuring refractive index changes very close to the sensor surface. When the refractive index is altered, the angle at which plasmon resonance occurs changes and this change directly correlates with the amount of protein interacting with the surface. A BIAcore 2000 is conveniently used. […]
(§2) Biotinylated heparin is immobilized on the biosensor chip. […] Solutions containing potential protein ligands of interest are injected over the sensor chip surface, and the binding is measured in real time (Fernig, In: Proteoglycan protocols, Ed. R. V. Iozzo, Humana Press, Totowa, N.J., USA, 2001). Baculovirus expressed recombinant human IL-4 (rhIL-4) and baculovirus expressed recombinant human IL-5 (rhIL-5) readily bind to heparin immobilized by this method (see PCT/AU2005/000551). […] Similarly, recombinant human eotaxin (CCL11) expressed in E. coli binds readily to immobilized heparin and binding is specific as there is little eotaxin binding to sensor chips lacking heparin. […]

[4] = biological target: T3, recombinant human IL-5 (rhIL-5) (Homo sapiens, UniProt P05113); experiment: BIAcore inhibition of IL-5 binding to immobilized heparin; conditions: BIAcore chip, titration, FIG. 3B
T3 construct: made in house; host or cells: baculovirus expression system
T3 sequence (P05113 20-134): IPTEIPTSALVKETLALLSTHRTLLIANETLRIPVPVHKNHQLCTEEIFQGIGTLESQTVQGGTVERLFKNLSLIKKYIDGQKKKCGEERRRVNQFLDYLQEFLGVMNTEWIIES
Description: as §1, §2

[5] = tested on: Guinea pigs sensitized to OVA and challenged with inhaled OVA; experiment: Second guinea pig asthma model, parameters 8 hours after OVA inhalation; type: in vivo
Description: A slightly different animal model was also examined. In this model Guinea pigs were sensitized to OVA twice by an intraperitoneal injection of 0.5 ml saline containing 20 mg Al(OH)3 and 20 μg OVA. The sensitizations are performed on days 0 and 7. Three weeks after the last sensitization, animals were pre-treated with either vehicle or drugs 30 min prior to inhalation of OVA (at 10 mg/ml) for 6 min (allergen challenge). For the negative control, animals received either sensitization and challenge with saline or sensitization with saline and challenge with OVA. Animals were terminated and all parameters measured 8 hours after the provocation. Vehicle or drugs were administered intra-tracheally, 1 ml/kg body weight, 30 min before the intra-tracheal challenge with OVA. The vehicle for compounds was saline. Budesonide as the reference compound was dissolved in the vehicle at concentrations of 1 mg/ml. To measure airway resistance (RL.) and lung compliance (Cdyn) bronchoconstriction was evoked with aerosolized methacholine (3 mg/ml, 10 mg/ml and 30 mg/ml). The difference between baseline readings and that obtained after methacholine were used to calculate Cdyn and RL. Bronchoalveolar lavage (BAL) was performed immediately after the lung function measurements. BAL was analysed for protein content (as a measure of leakage) and leukocyte number, differential cell counts were performed to indicate what subsets of leukocytes were best affected by the drugs.

Sequence of human GM-CSF (P04141 18-144): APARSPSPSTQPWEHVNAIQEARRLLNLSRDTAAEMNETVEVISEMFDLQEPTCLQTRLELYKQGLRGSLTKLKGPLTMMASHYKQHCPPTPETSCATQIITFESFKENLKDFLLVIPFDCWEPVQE

- Effect on TF-1.8 cell proliferation obtained with GM-CSF [1]: no effect
- Inhibition of cell migration triggered by IL-8 [2]: 74%
- IC50 [3]: ~15 nM
- IC50 [4]: 4 to 10 nM
Substance: Pentosan polysulfate [PPS]
- Inhibition of RL (airway resistance) ([5]; 0.5 mg/kg, FIG. 15A): 103%
- Inhibition of RL (airway resistance) ([5]; 2.4 mg/kg, FIG. 15A): 94%
- Inhibition of RL (airway resistance) ([5]; 10 mg/kg, FIG. 15A): 100%
- Total number of infiltrating leukocytes in the bronchoalveolar fluid (in words) ([5]; 0.1, 0.5, 2.5, 10 mg/kg intra-tracheal, FIG. 14B): significantly reduced
- Total protein content in the bronchoalveolar fluid ([5]; 0.1, 0.5, 2.5, 10 mg/kg intra-tracheal, all except 0.1 mg/kg significant (P<0.05), dose dependent, FIG. 14A): significantly reduced
- Inhibitory effect on RL (airway resistance) ([5]; all doses, after 10 mg/ml methacholine, FIG. 15A): more than 90%
- Effect on alterations of lung compliance (Cdyn) ([5]; represented as an increase in lung compliance, FIG. 15B): Inhibitory effects
